Results taken from patent publication US20170226139A1, “CRYSTALLINE SALTS OF (Z)-O-OCTADEC-9-EN-1-YL O,O-DIHYDROGEN PHOSPHOROTHIOATE” (priority 2013, published 2017).
Like-named read-outs stand apart in the source and are kept apart here.

Legend:
Beagle dogs = test: Single-dose subcutaneous toxicity in dogs; assay type: in vivo
Text: One group of one male and one female Beagle dogs received single escalating subcutaneous doses of Rx100.Lysine at 10 and 1 (female)/1.52 (male) mg/kg. […] Parameters evaluated included clinical signs, body weight, and gross pathology. The male and female dog survived until scheduled necropsy on Day 15. Administration of Rx100 had no effect on body weight or general health of the animals. Noteworthy clinical observations were confined to skin and behavior effects. Both animals scratched at the dose site, likely contributing to observations of redness at the dose site. Swelling and a thickened/raised area were also observed during the observation period. Clinical observations were sufficient to warrant the injection of diphenhydramine. […] Following injection of the L-lysine component of the formulation at an independent site, redness, scratching, or swelling was not seen.

[1] = system: bone marrow cells (micronucleated PCEs); test: In vivo rat bone marrow micronucleus assay; design: species or system Sprague-Dawley rats; settings: 500 mg/kg single subcutaneous dose
[2] = Subcutaneous and intravenous pharmacokinetics in healthy and irradiated Rhesus Macaques; assay type: in vivo
Method: We performed a cross-over comparison of subcutaneous and intravenous pharmacokinetics of Rx100.L-Lysine in six healthy Rhesus Macaques and subcutaneous pharmacokinetic and Pharmacodynamics of Rx100.L-Lysine after a single irradiation in six Rhesus Macaques.
Rhesus macaques (male, 3-5 kg) were administered vehicle control article (10 mM Histidine in sterile water for Injection, USP) or Rx100.Lysine salt as a single injection via subcutaneous injection or as an intravenous bolus as indicated in Table 32.
Blood was collected at baseline (7-10 days prior to dose administration), pre-dose (within 30 minutes), 0.5, 1, 2, 4, 6, 8, 24, 48, 72, 96, and 120 hours after dosing for phases 1 and 2. The phase 3 (post-irradiation phase) blood was collected at baseline (7-10 days prior to dose administration), pre-dose (within 30 minutes), 0.5, 1, 2, 4, 6, 8, 24, 48, 72, and 96 hours after dosing. The dose in phase 3 was administered approximately 24 hours after exposure to 11.5 Gy Partial Body Irradiation. Samples, approximately 1.0 mL, were collected and maintained on wet ice in vials containing Di-Potassium EDTA until centrifugation. Samples were stored in a freezer set to maintain −70° C. to −90° C. until shipped on dry ice for analysis.
Analysis was performed using qualified and validated Phoenix® WinNonlin® Software and RxBio™ SOP PRE-0030™, Phoenix® WinNonlin® Software for Statistical Analysis. The final data provided was imported into Phoenix® WinNonlin®. All data presented were generated using the validated Phoenix® WinNonlin® Software. Concentrations reported as BLOQ were treated as missing values for the purpose of this analysis. A non-compartmental pharmacokinetic analysis was performed for each subject separately for IV, SC, and SC+IR. The automatic terminal slope selector function was used along with nominal dose (1 mg/kg) with a dosing interval set at 120 hours since this was a single dose study. The terminal slope was selected from the last 3 quantifiable plasma concentrations for each subject (48-96 hours for the Phase 3 Irradiated subjects and 72-120 for all healthy subjects). Selected pharmacokinetic estimations are presented in Table 33, time of maximum concentration (Tmax (h)), maximum concentration observed (Cmax (ng/mL)), exposure or area under the concentration vs time curve (AUC (h*ng/mL)), volume of distribution (Vz_F ([…])), clearance (CL_F (mL/h/kg), and half-life (T½ or HL_Lambda_z (h)).

Male Sprague-Dawley rats = test: Gastrointestinal system safety pharmacology (charcoal transit, gastric emptying); assay type: in vivo
Method: Male Sprague-Dawley rats (n=6/group) were administered Rx100.lysine as a single oral (gavage) doses of 0 (10 mM histidine in sterile water for Injection, USP), 1.81, 6.33, and 18.1 mg/kg and monitored for gastrointestinal parameters of transit time and gastric emptying. A fifth group was treated with the positive control material morphine sulfate. Two hours after treatment, animals received an oral gavage dose of a charcoal suspension. Animals were then sacrificed 20 minutes. Parameters evaluated included gastrointestinal transit time and gastric emptying. […] No abnormal observations were recorded. […] It was concluded that there were no adverse effects on the gastrointestinal tract in rats at doses of 1.81 mg/kg (gastric emptying) or 6.33 mg/kg (transit time).

[3] = SC 1 mg/kg about 24 h after 11.5 Gy, Average of 6 animals
[4] = SC 1 mg/kg, healthy, Average of 6 animals
[5] = male, rhesus monkey, plasma, iv, 1 mg/kg, IV 1 mg/kg, healthy, Average of 6 animals
[6] = male, rhesus monkey, plasma, iv, 1 mg/kg, IV 1 mg/kg, healthy, individual animals (ID in c1)
[7] = male, rhesus monkey, plasma, sc, 1 mg/kg, SC 1 mg/kg about 24 h after 11.5 Gy, Average of 6 animals
[8] = male, rhesus monkey, plasma, sc, 1 mg/kg, SC 1 mg/kg, healthy, Average of 6 animals
[9] = male, Sprague-Dawley, rat, in vivo, oral, 140 min

## CCCCCCCC/C=C\CCCCCCCCOP(O)(O)=S [Rx100.L-Lysine, (Z)—O-octadec-9-en-1-yl O,O-dihydrogen phosphorothioate]
Beagle dogs; 1 mg/kg dose
  clinical observations at dose sites: persistent scratching and swelling at dose sites
  macroscopic and microscopic findings at dose sites: No remarkable findings
Beagle dogs; Rx100 formulation, beagle dogs
  tolerability of subcutaneous injection: not tolerated
Beagle dogs; injection site A (10 mg/kg), both animals
  microscopic examination of injection site: chronic-active inflammation with necrosis and vascular thrombus formation
Beagle dogs; single escalating SC doses 10 and 1/1.52 mg/kg
  effect on body weight or general health: no effect
[1]; harvest 24 hour
  Mean % MNPC (±SD) Male: 0.09%
  Mean Ratio PCE:NCE (±SD) Male: 0.52
[1]; harvest 48 hour
  Mean % MNPC (±SD) Male: 0.08%
[2]; IV 1 mg/kg, healthy, Average of 6 animals
  λz: 0.049 ± 0.020 h⁻¹
[2]; [3]
  CL: 0.333 ± 0.12 mL/min/kg
  Vd: 0.251 ± 0.091 L/kg
  λz: 0.079 ± 0.006 h⁻¹
[2]; [4]
  Vd: 0.26 ± 0.083 L/kg
  λz: 0.066 ± 0.004 h⁻¹
[2]; SC post IR
  F: 0.89±0.2
[2]; SC post IR, 1 mg/kg
  clearance (CL): 0.333 ± 0.12 mL/min/kg
  volume of distribution (Vd): 0.251 ± 0.091 L/kg
[2]; SC, healthy, versus IV
  fraction absorbed after subcutaneous administration (F): 1.0±0.18
[2]; SC, healthy, single dose 1 mg/kg
  volume of distribution (Vd): 0.26 ± 0.083 L/kg
[2]; [5]
  AUC: 63200 ± 15100 ng·h/mL
  Cmax: 18600 ± 1760 ng/mL
[2]; male, rhesus monkey, plasma, iv, 1 mg/kg, IV 1 mg/kg, healthy, Average of 6 animals, read-out: AUCINF
  AUC(0-inf): 63200 ± 15100 ng·h/mL
[2]; male, rhesus monkey, plasma, iv, 1 mg/kg, IV 1 mg/kg, healthy, Average of 6 animals, read-out: CL (converted)
  clearance: 0.283 mL/min/kg
[2]; male, rhesus monkey, plasma, iv, 1 mg/kg, IV 1 mg/kg, healthy, Average of 6 animals, read-out: T1/2 (converted)
  half-life: 16.4 ± 7.29 h
[2]; male, rhesus monkey, plasma, iv, 1 mg/kg, IV 1 mg/kg, healthy, Average of 6 animals, read-out: Vd
  Vd: 0.428 ± 0.29 L/kg
[2]; [6]
  AUC: 73500 ng·h/mL
  Cmax: 15900 ng/mL
[2]; male, rhesus monkey, plasma, iv, 1 mg/kg, IV 1 mg/kg, healthy, individual animals (ID in c1), read-out: AUCINF
  AUC(0-inf): 73500 ng·h/mL
[2]; male, rhesus monkey, plasma, iv, 1 mg/kg, IV 1 mg/kg, healthy, individual animals (ID in c1), read-out: CL (converted)
  clearance: 0.233 mL/min/kg
[2]; male, rhesus monkey, plasma, iv, 1 mg/kg, IV, healthy, 1 mg/kg, read-out: clearance (CL) (converted)
  clearance: 0.283 mL/min/kg
[2]; male, rhesus monkey, plasma, iv, 1 mg/kg, IV, healthy, 1 mg/kg, read-out: exposure (AUCINF)
  AUC(0-inf): 63200 ± 15100 ng·h/mL
[2]; male, rhesus monkey, plasma, iv, 1 mg/kg, IV, healthy, 1 mg/kg, read-out: half-life (converted)
  half-life: 16.4 ± 7.29 h
[2]; male, rhesus monkey, plasma, iv, 1 mg/kg, IV, healthy, 1 mg/kg, read-out: volume of distribution (Vd)
  Vd: 0.428 ± 0.29 L/kg
[2]; male, rhesus monkey, plasma, iv, 1 mg/kg, IV, healthy, read-out: half-life, range of individual subjects
  half-life: 9.37 to 28.8 h
[2]; male, rhesus monkey, plasma, iv, 1 mg/kg, intravenous bolus, healthy
  Cmax: 18600 ± 1760 ng/mL
[2]; [7]
  AUC: 57300 ± 24200 ng·h/mL
  Cmax: 3110 ± 887 ng/mL
  Tmax: 4 ± 2 h
[2]; male, rhesus monkey, plasma, sc, 1 mg/kg, SC 1 mg/kg about 24 h after 11.5 Gy, Average of 6 animals, read-out: AUCINF
  AUC(0-inf): 57300 ± 24200 ng·h/mL
[2]; male, rhesus monkey, plasma, sc, 1 mg/kg, SC 1 mg/kg about 24 h after 11.5 Gy, Average of 6 animals, read-out: T1/2 (converted)
  half-life: 8.76 ± 0.621 h
[2]; male, rhesus monkey, plasma, sc, 1 mg/kg, SC 1 mg/kg about 24 h after 11.5 Gy, individual animals (ID in c1), read-out: T1/2 (converted)
  half-life: 9.21 h
[2]; [8]
  AUC: 63700 ± 21400 ng·h/mL
  Cmax: 3130 ± 637 ng/mL
  Tmax: 4 ± 2 h
[2]; male, rhesus monkey, plasma, sc, 1 mg/kg, SC 1 mg/kg, healthy, Average of 6 animals, read-out: AUCINF
  AUC(0-inf): 63700 ± 21400 ng·h/mL
[2]; male, rhesus monkey, plasma, sc, 1 mg/kg, SC 1 mg/kg, healthy, Average of 6 animals, read-out: T1/2 (converted)
  half-life: 10.5 ± 0.6 h
[2]; male, rhesus monkey, plasma, sc, 1 mg/kg, SC 1 mg/kg, healthy, individual animals (ID in c1)
  Cmax: 2390 ng/mL
[2]; male, rhesus monkey, plasma, sc, 1 mg/kg, SC 1 mg/kg, healthy, individual animals (ID in c1), read-out: T1/2 (converted)
  half-life: 10.6 h
[2]; male, rhesus monkey, plasma, sc, 1 mg/kg, SC post IR
  Cmax: 3110 ± 887 ng/mL
[2]; male, rhesus monkey, plasma, sc, 1 mg/kg, SC post IR (~24 hours after 11.5 Gy Partial Body Irradiation), 1 mg/kg
  Tmax: 4 ± 2 h
[2]; male, rhesus monkey, plasma, sc, 1 mg/kg, SC post IR, 1 mg/kg, read-out: exposure (AUCINF)
  AUC(0-inf): 57300 ± 24200 ng·h/mL
[2]; male, rhesus monkey, plasma, sc, 1 mg/kg, SC post IR, 1 mg/kg, read-out: half-life (converted)
  half-life: 8.76 ± 0.621 h
[2]; male, rhesus monkey, plasma, sc, 1 mg/kg, SC, healthy, read-out: T½, range of individual subjects
  half-life: 9.67 to 10.7 h
[2]; male, rhesus monkey, plasma, sc, 1 mg/kg, SC, healthy, single dose 1 mg/kg, read-out: exposure (AUCINF)
  AUC(0-inf): 63700 ± 21400 ng·h/mL
[2]; male, rhesus monkey, plasma, sc, 1 mg/kg, SC, healthy, single dose 1 mg/kg, read-out: half-life (converted)
  half-life: 10.5 ± 0.6 h
[2]; male, rhesus monkey, plasma, sc, 1 mg/kg, SC, irradiated animals, read-out: half-life, range of individual subjects
  half-life: 7.88 to 9.66 h
[2]; male, rhesus monkey, plasma, sc, 1 mg/kg, healthy, single dose 1 mg/kg
  Cmax: 3130 ± 637 ng/mL
[2]; male, rhesus monkey, plasma, sc, 1 mg/kg, healthy, single dose 1 mg/kg, mean ± SD
  Tmax: 4 ± 2 h
Male Sprague-Dawley rats; 6.33 and 18.1 mg/kg, statistically significant only at 6.33 mg/kg
  gastric emptying: inhibited
Male Sprague-Dawley rats; [9]
  dose with no adverse effects on gastric emptying: 1.81 mg/kg
  dose with no adverse effects on transit time: 6.33 mg/kg
Male Sprague-Dawley rats; only at 18.1 mg/kg
  intestinal transit time: increased
